Reference: patent publication US11702428B2, “Chemical compounds as inhibitors of interleukin-1 activity” (Genentech, Inc., priority 2017, dated 2023)
Entries after “also recorded” stand apart in the source; their conditions may differ. Read-outs that look alike come from different tables or passages of the source.

Experiments:
TNFα [1] = test: TNFα levels of LPS and nigericin stimulated cells (counter-screen); type: cell-based, human
Procedure: (§1) For ELISA assays cells were seeded into 96-well plates. Post study, supernatants were removed and the levels of mature IL-1β, IL-18 and TNFα (Quantikine ELISA, R&D systems) were measured in cell conditioned media by ELISA according to manufacturer's instructions.
TNFα levels of LPS and nigericin stimulated cells is measured by HTRF assay (Cisbio, Bedford, Mass.). […] Measuring TNFalpha production also serves as a technical counter-screen to eliminate compounds that interfere with the HTRF reagents. Thus compounds that inhibit both IL-1β and TNFα levels are triaged for either being non-selective for inflammasome or interfering with the HTRF readout.

[2] = tested on: LPS and nigericin stimulated cells; test: cells; type: cell-based; conditions: Homo sapiens, read-out: CTG protective IC50
Procedure: Viability of compound treated cells is measured using CellTiter-Glo® assay (Promega, Madison, Wis.) that measures the ATP content of cells which is proportional to the number of live cells within a well. This is a counter-screen to establish that the reduction of IL-1β levels in LPS and nigericin stimulated and compound treated cells is not due to cytotoxicity, but rather through the inhibition of the inflammasome pathway. Compounds inhibiting NRLP3 inflammasome activation ultimately increase the viability of LPS and nigericin stimulated cells by blocking NLRP3 mediated pyroptosis that would otherwise lead to cell lysis.

[3] = Human microsomal stability (Eh); type: in vitro ADME; conditions: hepatic extraction ratio; 0.5 mg/mL microsomal protein, 1 μM, NADPH; liver blood flow 20.7 mL/min/kg
Procedure: The stock solutions of test article and positive control were prepared at a concentration of 10 mM using DMSO as diluents. All stock solutions were then diluted to working concentrations at 0.25 mM with 70% acetonitrile. The cofactor used in this study was NADPH regenerating system, that was composed of 6.5 mM NADP, 16.5 mM G-6-P, 3 U/mL G-6-P D. The quench reagent was consisted of acetonitrile containing tolbutamide and propanolol (serve as internal standard). Incubation mixtures containing 0.5 mg/mL liver microsomal protein and […] test article/positive control in 100 mM potassium phosphate buffer.
The 0-minute samples were prepared by addition of an 80 μL aliquot of each incubation mixture to 300 μL quench reagent to precipitate proteins. The samples were vortexed, and then a 20 μL aliquot of the NADPH regenerating system was added in. The reaction was initiated by addition of 80 μL of the NADPH regenerating system to 320 μL of each incubation mixture. The final incubation conditions achieved in 400 μL are: 0.5 mg/mL microsomal protein, 1 μM test article/positive control, 1.3 mM NADP, 3.3 mM glucose 6 phosphate, 0.6 U/mL glucose 6 phosphate dehydrogenase. The mixtures were incubated in a 37° C. water bath with gentle shaking. A 100 μL aliquot of each mixture was removed at 10, 30, 90 minutes to a clean 96-well plate which contains 300 μL quench reagent to precipitate proteins, and centrifuged (4000×g, 10 min). 80 μL of supernatant are taken into 96-well assay plates pre-added with 160 μL ultrapure water, and then analyzed by LC-MS/MS. Hepatic extraction ratio (Eh) values were calculated from measured in vitro clearance assuming a human liver blood flow of 20.7 mL/min/kg. Eh values of <0.3 are indicative of compounds with favorable metabolic stability.

NLRP3 inflammasome [4] = molecular target: T1, NLRP3 inflammasome (Homo sapiens, UniProt Q96P20); test: NLRP3 inflammasome activation assay in Kupffer cells (LPS priming, nigericin), IL-1β/IL-18 by ELISA; type: cell-based; conditions: KCs; LPS, nigericin; read-out: KC IL-1β IC50
T1 sequence (Q96P20 whole entry): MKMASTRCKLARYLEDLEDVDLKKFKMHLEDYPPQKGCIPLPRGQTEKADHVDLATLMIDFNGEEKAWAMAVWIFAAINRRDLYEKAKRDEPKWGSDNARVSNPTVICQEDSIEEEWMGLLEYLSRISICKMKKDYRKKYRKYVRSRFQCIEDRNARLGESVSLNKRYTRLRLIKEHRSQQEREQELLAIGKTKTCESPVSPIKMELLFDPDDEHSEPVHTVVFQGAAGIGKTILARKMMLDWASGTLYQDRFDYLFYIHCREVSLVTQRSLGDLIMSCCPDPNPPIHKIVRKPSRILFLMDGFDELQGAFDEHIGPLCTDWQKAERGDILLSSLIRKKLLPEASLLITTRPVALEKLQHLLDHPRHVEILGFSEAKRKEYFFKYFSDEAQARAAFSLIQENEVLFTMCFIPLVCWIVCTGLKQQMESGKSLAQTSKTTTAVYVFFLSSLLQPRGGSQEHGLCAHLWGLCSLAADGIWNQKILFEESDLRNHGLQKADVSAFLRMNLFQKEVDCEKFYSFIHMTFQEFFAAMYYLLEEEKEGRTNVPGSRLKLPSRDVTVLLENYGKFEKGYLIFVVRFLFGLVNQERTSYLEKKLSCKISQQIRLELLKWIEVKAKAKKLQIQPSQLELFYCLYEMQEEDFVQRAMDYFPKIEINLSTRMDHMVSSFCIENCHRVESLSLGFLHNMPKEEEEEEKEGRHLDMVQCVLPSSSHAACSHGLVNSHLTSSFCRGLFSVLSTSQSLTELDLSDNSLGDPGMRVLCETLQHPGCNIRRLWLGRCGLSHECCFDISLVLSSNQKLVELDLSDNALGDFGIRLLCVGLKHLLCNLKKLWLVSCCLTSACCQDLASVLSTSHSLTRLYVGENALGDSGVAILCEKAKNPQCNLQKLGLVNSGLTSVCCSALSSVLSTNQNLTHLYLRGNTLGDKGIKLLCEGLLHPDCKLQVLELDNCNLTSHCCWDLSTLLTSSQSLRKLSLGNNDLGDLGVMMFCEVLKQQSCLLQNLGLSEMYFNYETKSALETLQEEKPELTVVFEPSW
Excerpt: (§2) Some of the following assays were used to determine the inhibitory activity of the compounds on the NLRP3 inflammasome using a common inflammasome activation stimuli-nigericin.
Human Kupffer cells (KCs), specialized liver macrophages residing in […], were obtained by gradient isolation from liver specimens harvested post-mortem by Samsara Sciences. Cells were obtained through an IRB approved donor program by Samsara Sciences and all donors tested negative for bacterial and viral infections.
(§3) Cells were then stimulated with 10 uM Nigericin (Sigma Aldrich; InvivoGen) for 1.5 h. Plates were centrifuged at 1,500 rpm for 3 minutes to pellet cells and supernatant was transferred into new plates for subsequent experiments.
as §1

NLRP3 inflammasome [5] = molecular target: T1, NLRP3 inflammasome; test: NLRP3 inflammasome activation assay in PBMCs (LPS priming, nigericin), IL-1β by ELISA; type: cell-based; parameters: Human peripheral blood mononuclear cells (PBMCs); host or cells: primary human PBMCs from healthy donors; conditions: for IC50: LPS, nigericin, read-out: PBMC IL-1β IC50
Procedure: as §2
Human peripheral blood mononuclear cells (PBMCs), consisting of lymphocytes (T, B and NK cells), monocytes and dendritic cells, were freshly isolated from human peripheral blood from healthy donors. Cells were obtained through an IRB approved donor program by iXCells Biotechnologies where all the donors were tested for bacterial and viral infections. Cells were purified from peripheral blood using ficoll gradient centrifugation.
as §3, §1

IL-1β = test: LPS/ATP challenge model in C57BL/6 mice, IL-1β in peritoneal lavage; type: in vivo; conditions: 3.5 hours post dose
Procedure: (§4) The purpose of this study was to determine the effects of Compounds 1 and 2 treatment on cytokine production after LPS/ATP injection in female C57BL/6 mice.
(§5) On Day −1 mice were weighed and assigned to groups per Table 2 (see below) in a balanced manner to achieve similar average weight across the groups at the start of the study.
(§6) All mice received a single dose of treatment or vehicle, at hour minus 1.
(§7) At hour 0, all mice received 1 μg of lipopolysaccharide, ultra pure (LPS, InvivoGen, San Diego, Calif.) in 0.5 ml PBS, intraperitoneally.
(§8) At hour 2 (two hours after LPS injection), all mice were injected intraperitoneally with 0.5 ml of 80 mM ATP disodium salt (Sigma, pH adjusted to 7.2 before injection).
(§9) At hour 2.5 (30 minutes after ATP injection and 3.5 hours after compound dosing), blood from all mice was collected via retro-orbital bleeding into K2 EDTA tubes and plasma was prepared and stored at […]. Samples were shipped to the customer or vendor of customers choosing within 7 days of completing the study.
(§10) Immediately after the collection of blood, each mouse was euthanized, the peritoneal cavity was lavaged with 3 ml of ice-cold PBS containing 25 U/ml heparin sodium salt, cocktail of protease inhibitors (Complete™ ULTRA Tablets, Sigma, Roche), and 10% FBS. Approximately 1 ml of the lavage was collected, spun down to remove cells and the supernatant stored at −80° C.
(§11) Compound powders were stored at 4° C. All compounds were prepared fresh. Compounds were weighed out and first ground with a mortar and pestle, then ground with a small amount of vehicle. The mortar was then repeatedly rinsed with vehicle to remove all material and achieve the correct concentration. The final solution was vortexed to create a homogeneous mixture
(§12) Mouse IL-1β and TNFα concentrations in peritoneal lavage samples were determined using Becton Dickinson (Franklin Lakes, N.J.) CBA analysis kit, according to manufacturer's protocol. A single analysis was performed on each sample.
(§13) Concentrations of cytokines were compared using Student t-test.

pro-caspase-1 = test: Inhibition of Caspase1 activation in bone marrow derived macrophages (Western Blot); type: cell-based, mouse; conditions: 10 μM; BMDMs, LPS 100 ng/ml 3 hours, nigericin 10 μM 90 minutes
TNFα [6] = test: LPS/ATP challenge model in C57BL/6 mice, TNFα in peritoneal lavage; type: in vivo; conditions: 3.5 hours post dose
Procedure: as §4, §5, §6, §7, §8, §9, §10, §11, §12, §13

[7] = LPS and nigericin stimulated cells, CellTiter-Glo

SMILES	TNFα IC50 (PBMC or KC) (TNFα [1])	Human Microsomal Stability (Eh) [3]	IC50 (NLRP3 inflammasome [4]) [nM]	IC50 [2, 7] [nM]	IC50 (NLRP3 inflammasome [5]) [nM]	other results
O=C(Nc1c2c(cc3c1CCC3)CCC2)NS(=O)(=O)c1cnn2c1OCCC2	No Curve	0.3	–	–	–	IC50 [2]: < 100 nM
CO[C@H]1COc2c(S(=O)(=O)NC(=O)Nc3c4c(cc5c3CCC5)CCC4)cnn2C1	No Curve	0.3	< 100	< 100	< 100	–
CO[C@@H]1COc2c(S(=O)(=O)NC(=O)Nc3c4c(cc5c3CCC5)CCC4)cnn2C1	No Curve	0.2	100 to 1000	100 to 1000	100 to 1000	–
O=C(Nc1c2c(cc3c1CCC3)CCC2)NS(=O)(=O)c1cnn2c1OC[C@H](O)C2	No Curve	<0.1	< 100	< 100	< 100	–
C[C@H]1COc2c(S(=O)(=O)NC(=O)Nc3c4c(cc5c3CCC5)CCC4)cnn2C1	No Curve	–	< 100	< 100	< 100	–
CCO[C@H]1COc2c(S(=O)(=O)NC(=O)Nc3c4c(cc5c3CCC5)CCC4)cnn2C1	No Curve	0.4	< 100	< 100	< 100	–
CS(=O)(=O)NC(=O)Nc1c2c(cc3c1CCC3)CCC2 [Compound 2, N-((1,2,3,5,6,7-hexahydro-s-indacen-4-yl)carbamoyl)methanesulfonamide]	–	–	–	–	–	Mean (IL-1β) (IL-1β; single oral dose 0.25 mg/kg): 392.7 pg/mL; % Decrease of IL-1β vs. Vehicle (IL-1β; single oral dose 0.25 mg/kg, 0.25 mg/kg): 71.0%; Mean (IL-1β) (IL-1β; single oral dose 1 mg/kg): 12.9 pg/mL; % Decrease of IL-1β vs. Vehicle (IL-1β; single oral dose 1 mg/kg, 1 mg/kg): 99.0%; Mean (IL-1β) (IL-1β; single oral dose 2.5 mg/kg): 10.7 pg/mL; % Decrease of IL-1β vs. Vehicle (IL-1β; single oral dose 2.5 mg/kg, 2.5 mg/kg): 99.2%; activation of pro-caspase-1 (p45 and p10 bands, Western Blot) (pro-caspase-1): blocked; also recorded: inhibition of activation; % Decrease of TNFα vs. Vehicle (TNFα [6]; single oral dose 0.25 mg/kg): −12.5%; Mean (TNFα) (TNFα [6]; single oral dose 0.25 mg/kg): 384.7 pg/mL; % Decrease of TNFα vs. Vehicle (TNFα [6]; single oral dose 1 mg/kg): −15.5%; Mean (TNFα) (TNFα [6]; single oral dose 1 mg/kg): 394.9 pg/mL; % Decrease of TNFα vs. Vehicle (TNFα [6]; single oral dose 2.5 mg/kg): −218%; Mean (TNFα) (TNFα [6]; single oral dose 2.5 mg/kg): 416.6 pg/mL
O=S(=O)(NC(=S)Nc1c2c(cc3c1CCC3)CCC2)c1cnn2c1OCCC2 [Compound 3, N-((1,2,3,5,6,7-hexahydro-s-indacen-4-yl)carbamothioyl)-6,7-dihydro-5H-pyrazolo[5,1-b][1,3]oxazine-3-sulfonamide]	–	–	–	–	–	% Decrease of IL-1β vs. Vehicle (IL-1β; single oral dose 0.25 mg/kg): 53.0%; Mean (IL-1β) (IL-1β; single oral dose 0.25 mg/kg): 781.8 pg/mL; % Decrease of IL-1β vs. Vehicle (IL-1β; single oral dose 1 mg/kg): 96.5%; Mean (IL-1β) (IL-1β; single oral dose 1 mg/kg): 57.7 pg/mL; % Decrease of IL-1β vs. Vehicle (IL-1β; single oral dose 2.5 mg/kg): 99.1%; Mean (IL-1β) (IL-1β; single oral dose 2.5 mg/kg): 14.6 pg/mL; IL-1β production in PBMCs (FIG. 1) (NLRP3 inflammasome [5]): inhibition
O=C(Nc1c2c(cc3c1CCC3)CCC2)NS(=O)(=O)c1cnn2c1CCCC2 [Compound 4, N-((1,2,3,5,6,7-hexahydro-s-indacen-4-yl)carbamoyl)-4,5,6,7-tetrahydropyrazolo[1,5-a]pyridine-3-sulfonamide]	–	–	–	–	–	activation of pro-caspase-1 (p45 and p10 bands, Western Blot) (pro-caspase-1): blocked; also recorded: inhibition of activation
CC1(C)COc2c(S(=O)(=O)NC(=O)Nc3c4c(cc5c3CCC5)CCC4)cnn2C1 [drawing 513]	No Curve	0.5	< 100	< 100	< 100	–
O=C(Nc1c2c(cc3c1CCC3)CCC2)NS(=O)(=O)c1cnn2c1OCC(O)C2 (centres unmarked) [drawing 514]	No Curve	0.1	< 100	< 100	< 100	–
COC1COc2c(S(=O)(=O)NC(=O)Nc3c4c(cc5c3CCC5)CCC4)cnn2C1 (centres unmarked) [drawing 518]	No Curve	–	< 100	< 100	< 100	–
CC1CCn2ncc(S(=O)(=O)NC(=O)Nc3c4c(cc5c3CCC5)CCC4)c2O1 (centres unmarked) [drawing 519]	No Curve	–	< 100	–	100 to 1000	–
CN(C)[C@H]1COc2c(S(=O)(=O)NC(=O)Nc3c4c(cc5c3CCC5)CCC4)cnn2C1 [drawing 541]	No Curve	0.2	–	–	–	IC50 [2]: < 100 nM
CN[C@H]1COc2c(S(=O)(=O)NC(=O)Nc3c4c(cc5c3CCC5)CCC4)cnn2C1 [drawing 566]	No Curve	<0.1	–	–	–	IC50 [2]: < 100 nM
